Data set [1] can be described thus: In vivo pharmacokinetics after a single dose, rat. To be noted: male, plasma, Sprague-Dawley rat. The method, then: (§1) IV (intravenous) doses were formulated in 20% DMSO+60% PEG400+20% water. PO (per os) doses were formulated in 0.5% methylcellulose in water.
Rat: Male rats (SD strain, purchased from Shanghai JH Laboratory Animal Co. LTD) weighing 200-300 g were used for studies. Animals were fasted overnight and fed 4 h postdose. Water was available ad libitum for all animals. Test article was dosed via dorsal foot vein (IV doses) or oral gavage (PO doses). Blood samples were collected via tail vein from all animals at predose and at 0.083, 0.25, 0.5, 1, 2, 4, 8, and 24 h postdose into tubes containing the anticoagulant K2EDTA. Plasma was separated from the blood by centrifugation at 4° C. and stored at −70° C. until analysis. Test article concentrations in plasma were quantified using a liquid chromatography with tandem mass spectrometry (LC-MS/MS) method.

Data set [2] is described as follows: Metabolic stability in dog liver microsomes. The format is in vitro ADME. To be noted: pH 7.4, read-out: Liver microsomal clearance (t1/2). On the procedure:
Microsomal stability. Microsomal stability assays were conducted on a Beckmann Biomek FXp laboratory automation system. The liver microsomal incubation mixture consisted of liver microsomes (0.5 mg microsomal protein/mL), the Compound (1 μM), MgCl2 (3 mM), and EDTA (1 mM) in potassium phosphate buffer (100 mM, pH 7.4). Midazolam and Ketanserin were used as the assay control substrates. The reaction was initiated with the addition of an NADPH regeneration solution (1.3 mM NADPH) and maintained at 37° C. with shaking. At five time points ranging from 0 to 45 min, aliquots (50 μL) were removed and quenched with acetonitrile (100 μL) containing an internal standard (imipramine). After vortex and centrifugation, samples were analyzed by LC-MS/MS. Calculation of the in vitro half-lives and clearance followed literature guidelines.
For orientation: Liver microsomes are vesicles of endoplasmic reticulum, rich in cytochrome P450 enzymes.

The nature of data set [3]: In vivo pharmacokinetics after a single dose, monkey. To be noted: male, plasma, Cynomolgus monkey. The method, then:
as §1
Monkey: Male Cynomolgus monkeys (purchased from Hainan Jingang Biotech. Co., Ltd) weighing 3-5 kg were used for studies. Animals were fasted overnight and fed 4 h postdose. Test article was administered to monkeys via the cephalic vein (IV doses) or nasal gavage (PO doses). Blood samples were collected via the saphenous vein or cephalic vein from all animals at predose and 0.083, 0.25, 0.5, 1, 2, 4, 8, and 24 h postdose into tubes containing the anticoagulant K2EDTA. Plasma was separated from the blood by centrifugation at 4° C. and stored at −70° C. until analysis. Test article concentrations in plasma were quantified using a liquid chromatography with tandem mass spectrometry (LC-MS/MS) method.

[4] abbreviates: 1 mg/kg IV single dose, read-out: Vss.

As a reminder, the clearance is a measure of how efficiently the substance is removed, as volume per time. Broadly, the AUC(0-t) is the area under the concentration-time curve up to a stated or last time point. What is called Cmax is the peak of the concentration-time curve. Consider `CC(=O)N1CCn2c(C3CCOCC3)nc(-c3cccc4cc(-c5cnc(C)s5)ncc34)c2C1` [Compound 1, 1-(1-(3-(2-methylthiazol-5-yl)isoquinolin-8-yl)-3-(tetrahydro-2H-pyran-4-yl)-5,6-dihydroimidazo[1,5-α]pyrazin-7 (8H)-yl)ethan-1-one], for which the figures for the clearance in data set [1] (1 mg/kg IV single dose) and in data set [3] (1 mg/kg IV single dose) were 11.2 mL/min/kg and 6.97 mL/min/kg, respectively. Also, the figures for the half-life in data set [1] (1 mg/kg IV single dose) and in data set [3] (1 mg/kg IV single dose) were 3.82 h and 4.74 h, respectively. The Vd in data set [1] (setting [4]) turned out to be 2.31 L/kg; in data set [3] (setting [4]) it was 2.28 L/kg. Besides, the exposure AUC(0-t) in data set [1] (30 mg/kg PO single dose) was found to be 124 µM·h; in data set [3] (3 mg/kg PO single dose), 11.3 µM·h. Also, the maximum concentration (Cmax) was 23 µM in data set [1] (30 mg/kg PO single dose) and 1.97 µM in data set [3] (3 mg/kg PO single dose). The bioavailability turned out to be 129% in data set [1] (30 mg/kg PO single dose) and 70.5% in data set [3] (3 mg/kg PO single dose). Besides, in data set [2], the half-life at 1 μM is 11.9 h.

Source of the values: patent US12559497B2, “Imidazopiperazine inhibitors of transcription activating proteins” (Board of Regents, The University of Texas System, priority 2020, dated 2026).
